# Laboratory results: patent publication US8309068B2, “Isolated polypeptides and methods of improving muscle strength” (Myostin Therapeutics Pty Ltd., priority 2006, dated 2012)
# Where no end group is shown, it is not given here.
# Assays:
# [1] = system: skin biopsy wound in C56b1/6 mice; test: In vivo skin biopsy trial; settings: 4 mm biopsy punch; 6 μg/g SC day 1, 3, 5 and 7; vs saline, particularly later time points
# Experimental: C56b1/6 mice at ˜10 months of age were anesthetized, the skin at the back of the neck was shaved, and two wounds made on the skin with a 4 mm biopsy punch. The mice were injected subcutaneously with either saline or 300 myostatin antagonist at 6 μg/g of body weight at day 1, 3, 5 and 7 after injury. The mice were allowed to heal for 5, 7, 14, 21 and 28 days, after which they were culled and the skin processed for histology.
# For the histology, skin samples were fixed in 10% formalin, embedded and mounted in paraffin and stained with Masson's Trichrome stain. The sections were analysed for the size of wound area for each day following the treatments, and the values plotted.
# satellite cells = test: Single muscle fibre satellite cell activation assay (PCNA labeling); format: cell-based, mice
# Experimental: Single fibres were isolated as previously described Rosenblatt et al., (1995). Briefly, 1 and 24 month old wild-type mice were euthanized by CO2 gas followed by cervical dislocation. TA were dissected out and digested in 0.2% (w/v) type 1A collagenase (>260 CDU/mg, Sigma) in Dulbecco's modified Eagle medium (DMEM) (Invitrogen) for 60 minutes at 37° C. Muscles were transferred to DMEM +10% horse serum (HS) +0.5% chicken embryo extract (CEE) and fibres were separated by gentle trituration. Isolated fibres were transferred to 4 well chamber slides (Becton Dickinson) coated with 10% matrigel (Becton Dickinson) and fixed with 100% ice cold methanol for 10 minutes after culturing up to 72 hours at 37° C. in 5% CO2.
# Proliferating Cell Nuclear Antigen (PCNA) is expressed in cells that are actively undergoing cell cycle but not in quiescent cells. […] However, upon activation, satellite cells are activated to express PCNA and regenerate the muscle by replenishing the muscle fibres. Thus PCNA is a very reliable antigen to marker for the activated satellite cells.
# In order to determine the effect of myostatin antagonists on satellite cell activation, single muscle fibres from TA muscle of young (1 month) or old (24 month) wild type mice were cultured in presence of 5 μg/ml of myostatin antagonist 320, 310 or 300, in culture media for 24, 48 and 72 hours and fixed with methanol and washed in PBS. The fixed fibres were permeabilised in 0.5% TritonX-100 in PBS for 10 minutes, blocked in 10% normal goat serum and 0.35% carrageenan lambda in PBS for 30 minutes at room temperature then incubated with a 1:100 dilution of anti-PCNA antibody in blocker overnight. Primary antibody was detected using goat anti-mouse-alexa fluor 546 and fibres were counterstained with DAPI. PCNA positive activated satellite cells were counted under microscope and expressed as a percent of total myonuclei.
# p-FoxO1 = test: In vitro cancer cachexia trial: p-FoxO1 Western blot in C2C12 myotubes; format: cell-based, murine; settings: with myostatin 6 μg/mL; tested at 30, 60, 90 or 120 μg/mL; 24 hours
# Experimental: C2C12 cells were differentiated for 72 hours in differentiation media (DMEM+2% HS). Following this period of differentiation the myotubes were tested with recombinant myostatin at 6 μg/mL or a combination of both myostatin and 300 recombinant protein at 30, 60, 90 or 120 μg/mL for further 24 hours to determine if 300 can rescue myostatin-mediated muscle wasting in vitro. Gene expression changes of intermediate signalling molecules critical in myostatin-mediated cachexia were analysed. Therefore, protein was isolated from cells and Western blot analysis was performed to measure protein expression levels for p-FoxO1, which we have shown to be a critical signalling intermediates in Myostatin-mediated cachexia (McFarlane et al 2006).
substance,measurement,setting,value
"myostatin antagonist 300: recombinant peptide, amino acids 267-300 of bovine myostatin, with N terminal and C terminal tag (SEQ ID NO: 6) (DFGLDCDEHSTESRCCRYPLTVDFEAFGWDWIIA; cysteine pairing not given here; also: N- and C-terminal tags; listed as Homo sapiens)",wound area,[1],smaller wound area
same,percentage of activated satellite cells,"satellite cells; single fibres from old (2 year old) mice, 5 μg/ml, 24 or 48 hours",Significant increases
same,"percentage of activated satellite cells, comparison among antagonists and times","satellite cells; single fibres from old (2 year old) mice, after 48 hours",greatest increase
same,number of satellite cells activated (PCNA positive nuclei),"satellite cells; single fibres from young (1 month old) wild type mice, 5 μg/ml, 24 or 48 hours",significant increase
same,concentration giving maximal rescue of p-FoxO1 expression,p-FoxO1,90 µg/mL
